Results reported in the NIST ThermoML archive (doi:10.1021/je0342769).
Values joined by “and” are separate entries in the source; they are usually repeats but may differ in a detail not shown here. Identical values can stand only once. Numbers after ± are expanded uncertainties.

Conditions: Liquid, Closed cell (Static) method

SMILES: FC(F)CC(F)(F)F [1,1,1,3,3-pentafluoropropane]
- vapor or sublimation pressure (255.22 K): 21.93 ± 0.39 kPa
- vapor or sublimation pressure (259.37 K): 27.28 ± 0.39 kPa and 27.27 ± 0.39 kPa
- vapor or sublimation pressure (263.27 K): 33.25 ± 0.39 kPa and 33.24 ± 0.39 kPa
- vapor or sublimation pressure (267.31 K): 40.47 ± 0.39 kPa
- vapor or sublimation pressure (271.03 K): 48.26 ± 0.4 kPa
- vapor or sublimation pressure (275.31 K): 58.66 ± 0.4 kPa
- vapor or sublimation pressure (279.32 K): 69.99 ± 0.4 kPa and 69.98 ± 0.4 kPa
- vapor or sublimation pressure (279.33 K): 69.98 ± 0.4 kPa and 69.99 ± 0.4 kPa
- vapor or sublimation pressure (283.2 K): 82.37 ± 0.41 kPa and 82.36 ± 0.41 kPa
- vapor or sublimation pressure (285.08 K): 89.02 ± 0.41 kPa and 89.05 ± 0.41 kPa
- vapor or sublimation pressure (288.91 K): 103.68 ± 0.42 kPa and 103.67 ± 0.42 kPa
- vapor or sublimation pressure (291.16 K): 113.41 ± 0.43 kPa and 113.43 ± 0.43 kPa
- vapor or sublimation pressure (291.17 K): 113.42 ± 0.43 kPa
- vapor or sublimation pressure (292.62 K): 119.97 ± 0.43 kPa and 120.01 ± 0.43 kPa
- vapor or sublimation pressure (295.55 K): 134.37 ± 0.45 kPa and 134.41 ± 0.45 kPa
- vapor or sublimation pressure (298.31 K): 149.04 ± 0.46 kPa and 149.05 ± 0.46 kPa
- vapor or sublimation pressure (300.16 K): 159.38 ± 0.47 kPa
- vapor or sublimation pressure (313.13 K): 250.2 ± 0.54 kPa and 250.26 ± 0.54 kPa and 250.34 ± 0.54 kPa
- vapor or sublimation pressure (317.43 K): 287.67 ± 0.58 kPa and 287.72 ± 0.58 kPa and 287.84 ± 0.58 kPa
- vapor or sublimation pressure (321.77 K): 329.9 ± 0.63 kPa and 329.87 ± 0.63 kPa
- vapor or sublimation pressure (327.34 K): 390.52 ± 0.7 kPa and 390.61 ± 0.7 kPa
- vapor or sublimation pressure (333.55 K): 467.79 ± 0.79 kPa
- vapor or sublimation pressure (344.96 K): 639.43 ± 1 kPa
- vapor or sublimation pressure (347.8 K): 688.83 ± 1.1 kPa and 688.9 ± 1.1 kPa
- vapor or sublimation pressure (351.54 K): 757.91 ± 1.2 kPa and 757.93 ± 1.2 kPa and 757.86 ± 1.2 kPa
- vapor or sublimation pressure (354.13 K): 808.71 ± 1.3 kPa
- vapor or sublimation pressure (354.15 K): 809.38 ± 1.3 kPa
- vapor or sublimation pressure (357.7 K): 883.2 ± 1.4 kPa
- vapor or sublimation pressure (362.21 K): 984.31 ± 1.6 kPa and 984.35 ± 1.6 kPa
- vapor or sublimation pressure (364.47 K): 1038.2 ± 1.6 kPa
- vapor or sublimation pressure (367.1 K): 1103.6 ± 1.7 kPa
- vapor or sublimation pressure (367.11 K): 1103.6 ± 1.7 kPa
- vapor or sublimation pressure (371.11 K): 1209.3 ± 1.9 kPa
- vapor or sublimation pressure (371.12 K): 1209.3 ± 1.9 kPa
- vapor or sublimation pressure (374.81 K): 1313.1 ± 2.1 kPa
- vapor or sublimation pressure (374.95 K): 1317.3 ± 2.1 kPa
- vapor or sublimation pressure (377.03 K): 1378.9 ± 2.2 kPa
- vapor or sublimation pressure (381.38 K): 1514.3 ± 2.4 kPa
- vapor or sublimation pressure (384.5 K): 1617.4 ± 2.5 kPa
- vapor or sublimation pressure (388.32 K): 1751.2 ± 2.8 kPa
- vapor or sublimation pressure (393.64 K): 1950.8 ± 3.1 kPa

SMILES: FC(C(F)(F)F)C(F)(F)F [1,1,1,2,3,3,3-heptafluoropropane]
- vapor or sublimation pressure (253.31 K): 86.81 ± 0.56 kPa
- vapor or sublimation pressure (253.32 K): 86.83 ± 0.56 kPa
- vapor or sublimation pressure (253.33 K): 86.86 ± 0.56 kPa
- vapor or sublimation pressure (255.21 K): 94.46 ± 0.56 kPa
- vapor or sublimation pressure (257.26 K): 103.23 ± 0.57 kPa and 103.26 ± 0.57 kPa
- vapor or sublimation pressure (259.59 K): 114.05 ± 0.57 kPa
- vapor or sublimation pressure (261.28 K): 122.37 ± 0.58 kPa
- vapor or sublimation pressure (263.26 K): 132.72 ± 0.58 kPa
- vapor or sublimation pressure (265.17 K): 143.42 ± 0.83 kPa
- vapor or sublimation pressure (267.15 K): 155.12 ± 0.83 kPa and 155.14 ± 0.83 kPa
- vapor or sublimation pressure (269.19 K): 167.93 ± 0.84 kPa
- vapor or sublimation pressure (271.14 K): 181.01 ± 0.85 kPa
- vapor or sublimation pressure (273.13 K): 195.16 ± 0.85 kPa
- vapor or sublimation pressure (273.14 K): 195.21 ± 0.85 kPa
- vapor or sublimation pressure (273.16 K): 195.29 ± 0.85 kPa
- vapor or sublimation pressure (275.15 K): 210.31 ± 0.86 kPa
- vapor or sublimation pressure (275.17 K): 210.44 ± 0.86 kPa
- vapor or sublimation pressure (275.18 K): 210.49 ± 0.86 kPa
- vapor or sublimation pressure (276.99 K): 224.91 ± 0.87 kPa
- vapor or sublimation pressure (279.19 K): 243.27 ± 0.88 kPa
- vapor or sublimation pressure (281.14 K): 260.66 ± 0.89 kPa
- vapor or sublimation pressure (283.18 K): 279.74 ± 0.9 kPa
- vapor or sublimation pressure (285.18 K): 299.49 ± 0.91 kPa
- vapor or sublimation pressure (285.19 K): 299.62 ± 0.91 kPa
- vapor or sublimation pressure (287.14 K): 319.89 ± 0.93 kPa
- vapor or sublimation pressure (289.07 K): 340.97 ± 0.94 kPa
- vapor or sublimation pressure (289.1 K): 341.37 ± 0.95 kPa
- vapor or sublimation pressure (291.06 K): 363.71 ± 0.96 kPa
- vapor or sublimation pressure (291.16 K): 365.01 ± 0.96 kPa
- vapor or sublimation pressure (293.04 K): 387.68 ± 0.98 kPa
- vapor or sublimation pressure (293.15 K): 388.98 ± 0.98 kPa
- vapor or sublimation pressure (293.23 K): 390.05 ± 0.98 kPa
- vapor or sublimation pressure (295.22 K): 415.24 ± 1 kPa
- vapor or sublimation pressure (295.32 K): 416.61 ± 1 kPa
- vapor or sublimation pressure (297.21 K): 441.61 ± 1 kPa
- vapor or sublimation pressure (297.22 K): 441.76 ± 1 kPa
- vapor or sublimation pressure (299.07 K): 467.46 ± 1.1 kPa
- vapor or sublimation pressure (299.16 K): 468.9 ± 1.1 kPa
- vapor or sublimation pressure (301.54 K): 503.72 ± 1.1 kPa
- vapor or sublimation pressure (303.66 K): 536.19 ± 1.1 kPa
- vapor or sublimation pressure (305.19 K): 560.59 ± 1.1 kPa
- vapor or sublimation pressure (307.19 K): 593.83 ± 1.2 kPa
- vapor or sublimation pressure (309.51 K): 634.38 ± 1.2 kPa
- vapor or sublimation pressure (311.16 K): 664.23 ± 1.2 kPa
- vapor or sublimation pressure (313.13 K): 701.36 ± 1.3 kPa
- vapor or sublimation pressure (315.11 K): 740.37 ± 1.3 kPa
- vapor or sublimation pressure (317.15 K): 781.99 ± 1.4 kPa
- vapor or sublimation pressure (317.5 K): 789.45 ± 1.4 kPa
- vapor or sublimation pressure (319.51 K): 832.46 ± 1.4 kPa
- vapor or sublimation pressure (321.16 K): 869.25 ± 1.5 kPa
- vapor or sublimation pressure (323.13 K): 914.73 ± 1.6 kPa
- vapor or sublimation pressure (323.17 K): 915.9 ± 1.6 kPa
- vapor or sublimation pressure (325.11 K): 962.18 ± 1.6 kPa
- vapor or sublimation pressure (329.17 K): 1065.4 ± 1.7 kPa
- vapor or sublimation pressure (333.69 K): 1190.1 ± 1.9 kPa
- vapor or sublimation pressure (339.17 K): 1355.8 ± 2.1 kPa
- vapor or sublimation pressure (344.87 K): 1545.3 ± 2.4 kPa
- vapor or sublimation pressure (349.82 K): 1725.8 ± 2.7 kPa
- vapor or sublimation pressure (353.22 K): 1859.3 ± 2.9 kPa
- vapor or sublimation pressure (357.13 K): 2022.6 ± 3.2 kPa
- vapor or sublimation pressure (361.12 K): 2201.1 ± 3.5 kPa
- vapor or sublimation pressure (364.88 K): 2380.9 ± 3.7 kPa
- vapor or sublimation pressure (369.16 K): 2600 ± 4.1 kPa
- vapor or sublimation pressure (373.22 K): 2825.1 ± 4.4 kPa and 2825.2 ± 4.4 kPa and 2825.3 ± 4.4 kPa
